Counter-ions that a name gives are not always drawn. Like-named read-outs stand apart in the source and are kept apart here.
Key:
[1] = Intravenous pharmacokinetics in the rat, plasma levels monitored by bioassay with an E. coli strain
Experimental: (§2) The tests were performed by methods well-recognized in the art.
(§3) Specifically, the male Sprague-Dawley rats were administered a 20 mg/kg dose intravenously. The plasma levels of the administered compound were monitored by bioassay with an E. coli strain.

[2] = rat, in vivo, iv, 20 mg/kg
Experimental: as §2, §3

[3] = tested on: Staphylococcus aureus S13E; assay: MIC by standard agar dilution test; format: cell-based; conditions: β-lactamase producer, penicillin G resistant
From the text: (§1) The antibiotic activity of selected compounds of Formula I and, for comparison, a compound of related structure, is illustrated by the following in vitro test data. In Table I, the minimum inhibitory concentrations (MIC) for the compounds against a wide range of gram-positive and gram-negative bacteria are presented. The MIC values were obtained by the standard agar dilution test method. The excellent in vitro activity of the claimed compounds is especially surprising in light of their high solution stability. High solution stability of a β-lactam compound was until now thought to indicate low acylating ability of the β-lactam, and thus low antibacterial activity for the compound.

[4] = tested on: Shigella sonnei N9; assay: MIC by standard agar dilution test; format: cell-based
From the text: as §1

[5] = tested on: Salmonella typhi 1335; assay: MIC by standard agar dilution test; format: cell-based
From the text: as §1

[6] = tested on: Salmonella typhi X514; assay: MIC by standard agar dilution test; format: cell-based
From the text: as §1

[7] = tested on: Escherichia coli TEM; assay: MIC by standard agar dilution test; format: cell-based; conditions: β-lactamase producer
From the text: as §1

[8] = tested on: Staphylococcus aureus V41; assay: MIC by standard agar dilution test; format: cell-based; conditions: Staphylococcus aureus V41, penicillin G resistant
From the text: as §1

[9] = tested on: Streptococcus pneumoniae Park I; assay: MIC by standard agar dilution test; format: cell-based
From the text: as §1

[10] = tested on: Hemophilus influenzae C.L.; assay: MIC by standard agar dilution test; format: cell-based
From the text: as §1

[11] = tested on: Staphylococcus epidermidis EPI2; assay: MIC by standard agar dilution test; format: cell-based; conditions: Staphylococcus epidermidis EPI2, methicillin resistant
From the text: as §1

[12] = tested on: Staphylococcus epidermidis EPI1; assay: MIC by standard agar dilution test; format: cell-based; conditions: Staphylococcus epidermidis EPI1, methicillin resistant
From the text: as §1

Structure (SMILES)	AUC (area under the curve) [2]	Half-Life [2]	Minimum Inhibitory Concentration [3]	Minimum Inhibitory Concentration [4]	Minimum Inhibitory Concentration [5]	Minimum Inhibitory Concentration [6]	further results
CS(=O)(=O)Nc1cccc([C@@H](N)C(=O)N[C@@H]2C(=O)N3C(C(=O)O)=C(Cl)CC[C@H]23)c1 [Example 2, 7β-[2ʹ-(R)-2ʹ-(m-(Methylsulfonamido)phenyl)-2ʹ-Aminoactamido]-3-Chloro-3-(1-Carba-1-Dethiacephem)-4-Carboxyli c Acid, Zwitterionic Salt]	–	–	–	–	–	–	Half-Life ([1]; rat, plasma, iv, 20 mg/kg): 5.28 h
CCS(=O)(=O)Nc1cccc([C@@H](N)C(=O)N[C@@H]2C(=O)N3C(C(=O)O)=C(Cl)CC[C@H]23)c1 [Example 4, 7β-[2ʹ-(R)-2ʹ-(m-(Ethylsulfonamido)phenyl)-2ʹ-Aminoace amido)-3-Chloro-3-(1-Carba-1-Dethiacephem)-4-Carboxylic Acid, Zwitterionic Salt]	12	0.683 h	2 µg/mL	2 µg/mL	2 µg/mL	2 µg/mL	–
CCCS(=O)(=O)Nc1cccc([C@@H](N)C(=O)N[C@@H]2C(=O)N3C(C(=O)O)=C(Cl)CC[C@H]23)c1 [Example 5, 7β-[2ʹ-(R)-2ʹ-(m-(n-Propylsulfonamido)phenyl)-2ʹ-Aminocetamido]-3-Chloro-3-(1-Carba-1-Dethiacephem)-4-Carboxy lic Acid, Zwitterionic Salt.]	20	0.65 h	–	–	–	–	–
CCS(=O)(=O)Nc1cccc(C(N)C(=O)N[C@@H]2C(=O)N3C(C(=O)O)=C(Cl)CC[C@H]23)c1.O=C(O)C(F)(F)F (stereo partly drawn) [Example 3, 7β-[2ʹ-(R,S)-2ʹ-(m-(Ethylsulfonamido)phenyl)-2ʹ-Aminoaetamido]-3-Chloro-3-(1-Carba-1-Dethiacephem)-4-Carboxyl ic Acid Trifluoroacetate Salt]	18	0.55 h	–	–	–	–	–
CS(=O)(=O)Nc1cccc([C@@H](N)C(=O)N[C@@H]2C(=O)N3C(C(=O)O)=C(Cl)CC[C@H]23)c1.O=C(O)C(F)(F)F [Example 1, 7β-[2ʹ-(R)-2ʹ-(m-(Methylsulfonamido)phenyl)-2ʹ-Aminoactamido]-3-Chloro-3-(1-Carba-1-Dethiacephem)-4-Carboxyli c Acid Trifluoroacetate Salt]	–	–	2 µg/mL	0.5 µg/mL	0.5 µg/mL	0.5 µg/mL	Half-Life ([1]; rat plasma, 20 mg/kg intravenously, bioassay, model-independent analysis): 5.57 h; Minimum Inhibitory Concentration [7]: 0.25 µg/mL; Minimum Inhibitory Concentration [8]: 4 µg/mL; Minimum Inhibitory Concentration [9]: 1 µg/mL; Minimum Inhibitory Concentration [10]: 2 µg/mL; Minimum Inhibitory Concentration [11]: 2 µg/mL; Minimum Inhibitory Concentration [12]: 4 µg/mL

Reference: EP0266896A1, “7-( (Meta-substituted) phenylglycine) 1-carba-1-dethiacephalosporins” (priority 1986, dated 1988)
